# Reference: ChEMBL document CHEMBL4000192, “Identification and optimization of a novel series of indoleamine 2,3-dioxygenase inhibitors” (Bioorg Med Chem Lett, 2017)
# System: HeLa
# Experiment: Cytotoxic activity against human HeLa cells by […]
# Type: cell-based
# Details: not given
row,SMILES,IC50 [µM]
1,Cc1ccc(NC(=O)Nc2cc(-c3cccc(C(=O)O)c3F)ccc2Oc2ccccc2C(C)(C)C)cc1,> 30
2,COc1ccc(-c2ccc(Oc3cccc4c3CCCC4)c(NC(=O)Nc3ccccc3)c2)cc1C(=O)O,> 10
3,Cc1ccc(NC(=O)Nc2cc(-c3cccc(C(=O)O)c3)ccc2Oc2ccccc2C(C)(C)C)cc1,> 30
4,CCc1ccccc1Oc1ccc(-c2ccc(OC)c(C(=O)O)c2)cc1NC(=O)Nc1ccc(C)cc1,> 30
5,Cc1cccc(NC(=O)Nc2cc(-c3cccc(C(=O)O)c3)ccc2Oc2ccccc2C(C)(C)C)c1,> 30
6,COc1ccc(NC(=O)Nc2cc(-c3cccc(C(=O)O)c3)ccc2Oc2ccccc2C(C)(C)C)cc1,> 30
7,Cc1ccc(NC(=O)Nc2cc(-c3cc(Cl)cc(C(=O)O)c3)ccc2Oc2ccccc2C(C)(C)C)cc1,> 30
8,COc1ccc(-c2ccc(Oc3ccccc3C(C)(C)CO)c(NC(=O)Nc3ccc(C)cc3)c2)cc1C(=O)O,> 30
9,COc1ccc(-c2ccc(Oc3cccc4c3CCCC4)c(NC(=O)Nc3cccc(C)c3)c2)cc1C(=O)O,> 30
10,CC(C)(C)c1ccccc1Oc1ccc(-c2cccc(C(=O)O)c2)cc1NC(=O)Nc1ccc(OC(F)(F)F)cc1,22
11,Cc1ccc(NC(=O)Nc2cc(-c3ccc(Cl)c(C(=O)O)c3)ccc2Oc2ccccc2C(C)(C)C)cc1,> 30
12,CC(C)(C)c1ccccc1Oc1ccc(-c2cccc(C(=O)O)c2)cc1NC(=O)Nc1ccc(OC(F)F)cc1,> 30
13,C#CCOc1cccc(Oc2ccc(-c3ccc(OC)c(C(=O)O)c3)cc2NC(=O)Nc2ccc(C)cc2)c1C,> 30
14,COc1ccc(-c2ccc(Oc3cccc4c3CCCC4)c(NC(=O)Nc3ccccc3F)c2)cc1C(=O)O,> 10
15,COc1ccc(-c2ccc(Oc3ccccc3C#N)c(NC(=O)Nc3ccc(C)cc3)c2)cc1C(=O)O,> 30
16,COc1ccc(-c2ccc(Oc3cccc4c3CCCC4)c(NC(=O)Nc3ccccc3C)c2)cc1C(=O)O,> 30

# System: not listed separately
# Experiment: Metabolic stability in rat liver microsomes assessed as parent compound remaining at 0.5 uM after 10 mins
# Type: ADME, microsome
# Details: read-out: Stability
row,"remaining at 10 min, 0.5 µM [%]",SMILES
1,92,COc1ccc(-c2ccc(Oc3cccc4c3CCCC4)c(NC(=O)Nc3ccccc3)c2)cc1C(=O)O
2,71,COc1ccc(-c2ccc(Oc3cccc4c3CCCC4)c(NC(=O)Nc3cccc(C)c3)c2)cc1C(=O)O
3,72,COc1ccc(-c2ccc(Oc3cccc4c3CCCC4)c(NC(=O)Nc3ccccc3F)c2)cc1C(=O)O
4,65,COc1ccc(-c2ccc(Oc3cccc4c3CCCC4)c(NC(=O)Nc3ccccc3C)c2)cc1C(=O)O

# System: not listed separately
# Experiment: Metabolic stability in human liver microsomes assessed as parent compound remaining at 0.5 uM after 10 mins
# Type: ADME, microsome
# Details: read-out: Stability
row,"remaining at 10 min, 0.5 µM [%]",SMILES
1,80,COc1ccc(-c2ccc(Oc3cccc4c3CCCC4)c(NC(=O)Nc3ccccc3)c2)cc1C(=O)O
2,84,COc1ccc(-c2ccc(Oc3cccc4c3CCCC4)c(NC(=O)Nc3cccc(C)c3)c2)cc1C(=O)O
3,95,COc1ccc(-c2ccc(Oc3cccc4c3CCCC4)c(NC(=O)Nc3ccccc3F)c2)cc1C(=O)O
4,41,COc1ccc(-c2ccc(Oc3cccc4c3CCCC4)c(NC(=O)Nc3ccccc3C)c2)cc1C(=O)O

# Target: T1, Indoleamine 2,3-dioxygenase 1 (Homo sapiens, UniProt P14902)
# Experiment: Inhibition of IDO1 in IFN-gamma stimulated human HeLa cells assessed as inhibition of kynurenine production preincubated with cells followed by IFN-gamma addition measured after 20 hrs
# Type: cell-based
# Details: not given
# Target sequence in this assay (P14902 whole entry): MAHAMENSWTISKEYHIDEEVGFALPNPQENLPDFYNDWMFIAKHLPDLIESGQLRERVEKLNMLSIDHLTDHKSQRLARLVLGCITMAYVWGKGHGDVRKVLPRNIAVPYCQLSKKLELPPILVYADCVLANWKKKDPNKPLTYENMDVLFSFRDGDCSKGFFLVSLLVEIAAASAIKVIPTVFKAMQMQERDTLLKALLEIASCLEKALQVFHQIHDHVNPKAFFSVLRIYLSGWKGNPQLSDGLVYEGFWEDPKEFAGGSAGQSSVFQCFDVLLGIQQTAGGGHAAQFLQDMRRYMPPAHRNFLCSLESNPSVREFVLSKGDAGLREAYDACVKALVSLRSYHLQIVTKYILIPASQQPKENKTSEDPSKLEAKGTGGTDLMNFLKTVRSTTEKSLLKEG
row,IC50 [µM],SMILES
1,4.5,Cc1ccc(NC(=O)Nc2cc(-c3cccc(C(=O)O)c3F)ccc2Oc2ccccc2C(C)(C)C)cc1
2,0.062,COc1ccc(-c2ccc(Oc3cccc4c3CCCC4)c(NC(=O)Nc3ccccc3)c2)cc1C(=O)O
3,0.25,Cc1ccc(NC(=O)Nc2cc(-c3cc(Cl)cc(C(=O)O)c3)ccc2Oc2ccccc2C(C)(C)C)cc1
4,2.4,COc1ccc(-c2ccc(Oc3ccccc3C(C)(C)CO)c(NC(=O)Nc3ccc(C)cc3)c2)cc1C(=O)O
5,4,CC(C)(C)c1ccccc1Oc1ccc(-c2cccc(C(=O)O)c2)cc1NC(=O)Nc1ccc(OC(F)(F)F)cc1
6,2.6,CC(C)(C)c1ccccc1Oc1ccc(-c2cccc(C(=O)O)c2)cc1NC(=O)Nc1ccc(OC(F)F)cc1
7,6,COc1ccc(-c2ccc(Oc3ccccc3C#N)c(NC(=O)Nc3ccc(C)cc3)c2)cc1C(=O)O
8,0.049,COc1ccc(-c2ccc(Oc3cccc4c3CCCC4)c(NC(=O)Nc3ccccc3C)c2)cc1C(=O)O

# Target: Cytochrome P450 2C19 (Homo sapiens, UniProt P33261)
# Sequence (P33261 whole entry): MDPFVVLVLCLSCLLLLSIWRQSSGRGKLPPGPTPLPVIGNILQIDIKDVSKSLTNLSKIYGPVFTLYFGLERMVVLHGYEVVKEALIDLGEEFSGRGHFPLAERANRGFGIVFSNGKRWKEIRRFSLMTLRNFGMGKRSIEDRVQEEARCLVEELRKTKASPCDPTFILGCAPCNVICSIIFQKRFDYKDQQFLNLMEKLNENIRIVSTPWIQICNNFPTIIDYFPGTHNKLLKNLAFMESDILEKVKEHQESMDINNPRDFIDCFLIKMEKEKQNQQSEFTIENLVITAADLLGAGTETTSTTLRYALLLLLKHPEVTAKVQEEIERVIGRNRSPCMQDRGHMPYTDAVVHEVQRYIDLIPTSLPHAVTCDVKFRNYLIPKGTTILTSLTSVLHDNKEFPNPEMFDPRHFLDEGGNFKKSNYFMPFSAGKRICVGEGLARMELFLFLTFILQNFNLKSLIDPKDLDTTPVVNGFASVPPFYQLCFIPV
# Experiment: Inhibition of CYP2C19 (unknown origin)
# Type: ADME
# Details: not given
row,IC50 [µM],SMILES
1,> 3,COc1ccc(-c2ccc(Oc3cccc4c3CCCC4)c(NC(=O)Nc3cccc(C)c3)c2)cc1C(=O)O
2,> 5,CC(C)(C)c1ccccc1Oc1ccc(-c2cccc(C(=O)O)c2)cc1NC(=O)Nc1ccc(OC(F)(F)F)cc1
3,> 3,COc1ccc(-c2ccc(Oc3cccc4c3CCCC4)c(NC(=O)Nc3ccccc3C)c2)cc1C(=O)O

# Target: T1, Indoleamine 2,3-dioxygenase 1
# Experiment: Inhibition of IDO1 (unknown origin) using tryptophan as substrate preincubated for 15 mins followed by substrate addition by high-throughput screening assay
# Details: not given
# Target sequence in this assay (P14902 whole entry): as the sequence (P14902 whole entry) above
row,IC50 [µM],SMILES
1,0.087,CC(C)(C)c1ccccc1Oc1ccc(-c2cccc(C(=O)O)c2)cc1NC(=O)Nc1ccc(OC(F)(F)F)cc1

# Target: T2, Cytochrome P450 1A2 (Homo sapiens, UniProt P05177)
# T2 sequence (P05177 whole entry): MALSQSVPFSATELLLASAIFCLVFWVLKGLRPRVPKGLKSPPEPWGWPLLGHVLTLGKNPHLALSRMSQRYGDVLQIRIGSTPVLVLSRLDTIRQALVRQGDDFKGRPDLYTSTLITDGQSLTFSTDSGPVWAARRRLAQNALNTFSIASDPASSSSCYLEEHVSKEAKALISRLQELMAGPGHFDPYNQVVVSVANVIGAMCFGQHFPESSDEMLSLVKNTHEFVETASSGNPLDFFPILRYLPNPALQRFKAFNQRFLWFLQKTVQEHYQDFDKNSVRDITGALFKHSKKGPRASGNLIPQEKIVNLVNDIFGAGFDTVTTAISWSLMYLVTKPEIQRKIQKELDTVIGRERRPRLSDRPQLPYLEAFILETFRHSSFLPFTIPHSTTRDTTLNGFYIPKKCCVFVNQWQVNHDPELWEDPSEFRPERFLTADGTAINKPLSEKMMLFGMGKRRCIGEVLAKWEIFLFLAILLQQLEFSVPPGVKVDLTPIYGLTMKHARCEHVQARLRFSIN
# Experiment: Inhibition of CYP1A2 (unknown origin)
# Type: ADME
# Details: not given
row,IC50 [µM],SMILES
1,> 3,COc1ccc(-c2ccc(Oc3cccc4c3CCCC4)c(NC(=O)Nc3cccc(C)c3)c2)cc1C(=O)O
2,> 5,CC(C)(C)c1ccccc1Oc1ccc(-c2cccc(C(=O)O)c2)cc1NC(=O)Nc1ccc(OC(F)(F)F)cc1
3,> 3,COc1ccc(-c2ccc(Oc3cccc4c3CCCC4)c(NC(=O)Nc3ccccc3C)c2)cc1C(=O)O

# System: not listed separately
# Experiment: Metabolic stability in mouse liver microsomes assessed as parent compound remaining at 0.5 uM after 10 mins
# Type: ADME, microsome
# Details: read-out: Stability
row,"remaining at 10 min, 0.5 µM [%]",SMILES
1,96,COc1ccc(-c2ccc(Oc3cccc4c3CCCC4)c(NC(=O)Nc3ccccc3)c2)cc1C(=O)O
2,86,COc1ccc(-c2ccc(Oc3cccc4c3CCCC4)c(NC(=O)Nc3cccc(C)c3)c2)cc1C(=O)O
3,77,COc1ccc(-c2ccc(Oc3cccc4c3CCCC4)c(NC(=O)Nc3ccccc3F)c2)cc1C(=O)O
4,70,COc1ccc(-c2ccc(Oc3cccc4c3CCCC4)c(NC(=O)Nc3ccccc3C)c2)cc1C(=O)O

# Target: T1, Indoleamine 2,3-dioxygenase 1
# Experiment: Inhibition of IDO1 (unknown origin) at 25 uM using tryptophan as substrate preincubated for 15 mins followed by substrate addition by high-throughput screening assay relative to control
# Details: not given
# Target sequence in this assay (P14902 whole entry, looked up): as the sequence (P14902 whole entry) above
row,inhibition [%],SMILES
1,> 75,CC(C)(C)c1ccccc1Oc1ccc(-c2cccc(C(=O)O)c2)cc1NC(=O)Nc1ccc(OC(F)(F)F)cc1

# Target: T3, Cytochrome P450 2C8 (Homo sapiens, UniProt P10632)
# T3 sequence (P10632 whole entry): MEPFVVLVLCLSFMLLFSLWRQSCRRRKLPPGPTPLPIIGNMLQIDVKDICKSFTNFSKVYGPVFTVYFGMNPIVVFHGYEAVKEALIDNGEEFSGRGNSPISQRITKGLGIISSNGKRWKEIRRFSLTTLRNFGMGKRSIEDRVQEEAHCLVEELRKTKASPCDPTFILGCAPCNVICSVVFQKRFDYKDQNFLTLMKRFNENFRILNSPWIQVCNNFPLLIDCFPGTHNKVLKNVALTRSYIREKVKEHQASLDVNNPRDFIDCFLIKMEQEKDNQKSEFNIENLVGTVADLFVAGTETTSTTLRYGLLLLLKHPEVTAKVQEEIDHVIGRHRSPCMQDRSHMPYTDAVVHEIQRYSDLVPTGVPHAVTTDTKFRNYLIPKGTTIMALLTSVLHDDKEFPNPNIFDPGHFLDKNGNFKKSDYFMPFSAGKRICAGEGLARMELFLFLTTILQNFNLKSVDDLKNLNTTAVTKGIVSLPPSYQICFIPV
# Experiment: Inhibition of CYP2C8 (unknown origin)
# Type: ADME
# Details: not given
row,IC50 [µM],SMILES
1,> 3,COc1ccc(-c2ccc(Oc3cccc4c3CCCC4)c(NC(=O)Nc3cccc(C)c3)c2)cc1C(=O)O
2,> 5,CC(C)(C)c1ccccc1Oc1ccc(-c2cccc(C(=O)O)c2)cc1NC(=O)Nc1ccc(OC(F)(F)F)cc1
3,> 3,COc1ccc(-c2ccc(Oc3cccc4c3CCCC4)c(NC(=O)Nc3ccccc3C)c2)cc1C(=O)O

# Target: Cytochrome P450 2D6 (Homo sapiens, UniProt P10635)
# Sequence (P10635 whole entry): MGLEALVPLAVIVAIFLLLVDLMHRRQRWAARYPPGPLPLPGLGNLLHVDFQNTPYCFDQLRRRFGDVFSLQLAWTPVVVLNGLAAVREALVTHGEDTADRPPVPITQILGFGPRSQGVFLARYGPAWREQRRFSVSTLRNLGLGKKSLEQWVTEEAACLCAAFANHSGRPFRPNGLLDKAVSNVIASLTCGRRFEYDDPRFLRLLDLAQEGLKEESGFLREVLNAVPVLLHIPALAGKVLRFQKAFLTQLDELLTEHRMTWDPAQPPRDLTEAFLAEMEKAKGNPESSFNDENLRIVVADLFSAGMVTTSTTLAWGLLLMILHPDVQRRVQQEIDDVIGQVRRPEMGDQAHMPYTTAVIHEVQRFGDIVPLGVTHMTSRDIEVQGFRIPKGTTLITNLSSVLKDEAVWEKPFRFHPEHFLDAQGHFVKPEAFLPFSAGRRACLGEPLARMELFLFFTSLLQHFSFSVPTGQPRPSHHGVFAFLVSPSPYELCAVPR
# Experiment: Inhibition of CYP2D6 (unknown origin)
# Type: ADME
# Details: not given
row,IC50 [µM],SMILES
1,> 3,COc1ccc(-c2ccc(Oc3cccc4c3CCCC4)c(NC(=O)Nc3cccc(C)c3)c2)cc1C(=O)O
2,> 5,CC(C)(C)c1ccccc1Oc1ccc(-c2cccc(C(=O)O)c2)cc1NC(=O)Nc1ccc(OC(F)(F)F)cc1
3,> 3,COc1ccc(-c2ccc(Oc3cccc4c3CCCC4)c(NC(=O)Nc3ccccc3C)c2)cc1C(=O)O

# Target: T4, Cytochrome P450 3A4 (Homo sapiens, UniProt P08684)
# T4 sequence (P08684 whole entry): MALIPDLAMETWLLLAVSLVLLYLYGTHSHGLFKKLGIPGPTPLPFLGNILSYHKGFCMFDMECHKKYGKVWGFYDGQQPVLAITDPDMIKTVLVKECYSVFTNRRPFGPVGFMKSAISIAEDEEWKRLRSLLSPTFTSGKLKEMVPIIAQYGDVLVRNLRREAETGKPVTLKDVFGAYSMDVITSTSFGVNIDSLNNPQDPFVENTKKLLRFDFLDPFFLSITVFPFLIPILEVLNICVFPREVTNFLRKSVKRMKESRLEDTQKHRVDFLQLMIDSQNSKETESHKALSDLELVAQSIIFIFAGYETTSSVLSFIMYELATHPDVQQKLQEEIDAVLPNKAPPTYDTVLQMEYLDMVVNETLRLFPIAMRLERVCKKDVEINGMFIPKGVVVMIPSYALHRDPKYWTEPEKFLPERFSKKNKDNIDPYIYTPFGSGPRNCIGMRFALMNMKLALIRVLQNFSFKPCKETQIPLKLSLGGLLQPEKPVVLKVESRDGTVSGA
# Experiment: Inhibition of CYP3A4 (unknown origin) using BFC as substrate
# Type: ADME
# Details: not given
row,IC50 [µM],SMILES
1,> 3,COc1ccc(-c2ccc(Oc3cccc4c3CCCC4)c(NC(=O)Nc3cccc(C)c3)c2)cc1C(=O)O
2,> 5,CC(C)(C)c1ccccc1Oc1ccc(-c2cccc(C(=O)O)c2)cc1NC(=O)Nc1ccc(OC(F)(F)F)cc1
3,> 3,COc1ccc(-c2ccc(Oc3cccc4c3CCCC4)c(NC(=O)Nc3ccccc3C)c2)cc1C(=O)O

# Target: T5, Cytochrome P450 2B6 (Homo sapiens, UniProt P20813)
# T5 sequence (P20813 whole entry): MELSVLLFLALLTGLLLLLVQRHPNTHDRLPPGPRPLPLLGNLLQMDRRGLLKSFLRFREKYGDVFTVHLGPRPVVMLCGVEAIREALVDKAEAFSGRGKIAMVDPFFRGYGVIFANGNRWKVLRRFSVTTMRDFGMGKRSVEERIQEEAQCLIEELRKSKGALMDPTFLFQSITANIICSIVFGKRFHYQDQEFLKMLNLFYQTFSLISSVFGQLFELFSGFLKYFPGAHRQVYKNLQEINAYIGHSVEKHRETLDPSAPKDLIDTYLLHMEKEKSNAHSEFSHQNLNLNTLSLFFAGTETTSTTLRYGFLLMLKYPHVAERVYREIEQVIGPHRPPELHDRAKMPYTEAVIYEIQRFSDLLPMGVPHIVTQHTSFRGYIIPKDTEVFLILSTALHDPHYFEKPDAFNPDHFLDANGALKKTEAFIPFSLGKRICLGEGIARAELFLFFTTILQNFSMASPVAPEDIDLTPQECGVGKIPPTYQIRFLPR
# Experiment: Inhibition of CYP2B6 (unknown origin)
# Type: ADME
# Details: not given
row,IC50 [µM],SMILES
1,> 3,COc1ccc(-c2ccc(Oc3cccc4c3CCCC4)c(NC(=O)Nc3cccc(C)c3)c2)cc1C(=O)O
2,> 5,CC(C)(C)c1ccccc1Oc1ccc(-c2cccc(C(=O)O)c2)cc1NC(=O)Nc1ccc(OC(F)(F)F)cc1
3,> 3,COc1ccc(-c2ccc(Oc3cccc4c3CCCC4)c(NC(=O)Nc3ccccc3C)c2)cc1C(=O)O

# Target: T4, Cytochrome P450 3A4
# Experiment: Inhibition of CYP3A4 (unknown origin) using BZR as substrate
# Type: ADME
# Details: not given
row,IC50 [µM],SMILES
1,> 3,COc1ccc(-c2ccc(Oc3cccc4c3CCCC4)c(NC(=O)Nc3cccc(C)c3)c2)cc1C(=O)O
2,> 5,CC(C)(C)c1ccccc1Oc1ccc(-c2cccc(C(=O)O)c2)cc1NC(=O)Nc1ccc(OC(F)(F)F)cc1
3,> 3,COc1ccc(-c2ccc(Oc3cccc4c3CCCC4)c(NC(=O)Nc3ccccc3C)c2)cc1C(=O)O

# Target: Cytochrome P450 2C9 (Homo sapiens, UniProt P11712)
# Sequence (P11712 whole entry): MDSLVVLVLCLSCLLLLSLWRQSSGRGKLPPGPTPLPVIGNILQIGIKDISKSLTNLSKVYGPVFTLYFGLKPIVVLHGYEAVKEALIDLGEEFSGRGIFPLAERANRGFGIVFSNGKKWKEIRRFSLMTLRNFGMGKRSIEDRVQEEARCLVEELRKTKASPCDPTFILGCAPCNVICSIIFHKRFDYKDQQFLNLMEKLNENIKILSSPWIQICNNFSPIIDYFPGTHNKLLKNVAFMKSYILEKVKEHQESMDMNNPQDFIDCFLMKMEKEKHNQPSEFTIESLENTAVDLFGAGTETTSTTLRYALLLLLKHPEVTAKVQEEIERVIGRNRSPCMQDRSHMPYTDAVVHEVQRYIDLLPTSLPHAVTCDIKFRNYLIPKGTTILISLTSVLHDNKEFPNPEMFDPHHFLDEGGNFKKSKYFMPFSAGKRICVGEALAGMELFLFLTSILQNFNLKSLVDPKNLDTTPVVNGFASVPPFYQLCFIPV
# Experiment: Inhibition of CYP2C9 (unknown origin)
# Type: ADME
# Details: not given
row,IC50 [µM],SMILES
1,> 3,COc1ccc(-c2ccc(Oc3cccc4c3CCCC4)c(NC(=O)Nc3cccc(C)c3)c2)cc1C(=O)O
2,2.5,CC(C)(C)c1ccccc1Oc1ccc(-c2cccc(C(=O)O)c2)cc1NC(=O)Nc1ccc(OC(F)(F)F)cc1
3,> 3,COc1ccc(-c2ccc(Oc3cccc4c3CCCC4)c(NC(=O)Nc3ccccc3C)c2)cc1C(=O)O
